Data reported in US20230265247A1, “PROCESS FOR PREPARING POLYIMIDES” (Technische Universität Wien, priority 2020, published 2023).
Read-outs that look alike come from different tables or passages of the source.

Columns and labels:
[1] = cited from earlier work
[2] = Water solubility of the diamines, literature values; format: physicochemical; conditions: ratio of cited solubilities
[3] = 1 ml distilled water with around 20 to 40% by weight of salt, stirred 15 minutes
From the text: Those salts with which no clear solution without appreciable amounts of precipitate as a sediment were obtained were referred to as being “insoluble in water.”

[4] = salts of tetrahydrofuran-2,3,4,5-tetracarboxylic acid, no = no clear solution
[5] = salts of 1,2,3,4-cyclobutanetetracarboxylic acid
[6] = salts of 1,2,3,4-cyclopentanetetracarboxylic acid
[7] = salts of 1,2,3,4-butanetetracarboxylic acid
[8] = salts of 1,2,4,5-cyclohexanetetracarboxylic acid
[9] = salts of 3,3′,4,4′-benzophenonetetracarboxylic acid

For `CC1CC(CC2CCC(N)C(C)C2)CCC1N` (stereo not shown) [4,4′-methylene-bis(2-methylcyclohexylamine)], the “water solubility of the diamine” value ([1]; according to perflavory.com) is given as “around 88 mg/l” and the “water solubility less by a factor, versus 4,4′-methylene-bis(cyclohexylamine)” value [2] is given as 45.

For `NC1CCC(CC2CCC(N)CC2)CC1` (stereo not shown) [4,4′-methylene-bis(cyclohexylamine)], the “water solubility of the diamine” value ([1]; cited in Wikipedia) is listed as “about 4 g/l”.

In the case of `NCCCCN.O=C(O)C1OC(C(=O)O)C(C(=O)O)C1C(=O)O` (stereo not shown) [Example B2, Butane-1,4-diammonium-dihydrogen-tetrahydrofuran-2,3,4,5-tetracarboxylate], the Salt is water-soluble [3, 4] is reported as “yes”.

With `NCCCCCN.O=C(O)C1OC(C(=O)O)C(C(=O)O)C1C(=O)O` (stereo not shown) [Example B3, Pentane-1,5-diammonium-dihydrogen-tetrahydrofuran-2,3,4,5-tetracarboxylate] the Salt is water-soluble [3, 4] was “yes”.

In the case of `CC(C)(CN)CN.O=C(O)C1OC(C(=O)O)C(C(=O)O)C1C(=O)O` (stereo not shown) [Example B4, 2,2-Dimethylpropane-1,3-diammonium-dihydrogen-tetrahydrofuran-2,3,4,5-tetracarboxylate], the Salt is water-soluble [3, 4] is reported as “yes”.

With `CC(CN)CCCN.O=C(O)C1OC(C(=O)O)C(C(=O)O)C1C(=O)O` (stereo not shown) [Example B6, 2-Methylpentane-1,5-diammonium-dihydrogen-tetrahydrofuran-2,3,4,5-tetracarboxylate] the Salt is water-soluble [3, 4] was “yes”.

In the case of `NCCCCCCCN.O=C(O)C1OC(C(=O)O)C(C(=O)O)C1C(=O)O` (stereo not shown) [Example B7, Heptane-1,7-diammonium-dihydrogen-tetrahydrofuran-2,3,4,5-tetracarboxylate], the Salt is water-soluble [3, 4] is reported as “yes”.

In the case of `NCCCCCCCCN.O=C(O)C1OC(C(=O)O)C(C(=O)O)C1C(=O)O` (stereo not shown) [Example B8, Octane-1,8-diammonium-dihydrogen-tetrahydrofuran-2,3,4,5-tetracarboxylate], the Salt is water-soluble [3, 4] is reported as “yes”.

For `NCCCCCCCCCN.O=C(O)C1OC(C(=O)O)C(C(=O)O)C1C(=O)O` (stereo not shown) [Example B9, Nonane-1,9-diammonium-dihydrogen-tetrahydrofuran-2,3,4,5-tetracarboxylate], the Salt is water-soluble [3, 4] was “yes”.

In the case of `NC1CCCC(N)C1.O=C(O)C1OC(C(=O)O)C(C(=O)O)C1C(=O)O` (stereo not shown) [Example B11, Cyclohexane-1,3-diammonium-dihydrogen-tetrahydrofuran-2,3,4,5-tetracarboxylate], the Salt is water-soluble [3, 4] is reported as “yes”.

With `NC1CCC(N)CC1.O=C(O)C1OC(C(=O)O)C(C(=O)O)C1C(=O)O` (stereo not shown) [Example B12, Cyclohexane-1,4-diammonium-dihydrogen-tetrahydrofuran-2,3,4,5-tetracarboxylate] the Salt is water-soluble [3, 4] was “yes”.

With `NCC1CCCC(CN)C1.O=C(O)C1OC(C(=O)O)C(C(=O)O)C1C(=O)O` (stereo not shown) [Example B13, Cyclohexane-1,3-bis(methanammonium)-dihydrogen-tetrahydrofuran-2,3,4,5-tetracarboxylate] the Salt is water-soluble [3, 4] was “yes”.

With `NCC1CCC(CN)CC1.O=C(O)C1OC(C(=O)O)C(C(=O)O)C1C(=O)O` (stereo not shown) [Example B14, Cyclohexane-1,4-bis(methanammonium)-dihydrogen-tetrahydrofuran-2,3,4,5-tetracarboxylate] the Salt is water-soluble [3, 4] was “yes”.

With `CC1(C)CC(N)CC(C)(CN)C1.O=C(O)C1OC(C(=O)O)C(C(=O)O)C1C(=O)O` (stereo not shown) [Example B16, Isophorone diammonium-dihydrogen-tetrahydrofuran-2,3,4,5-tetracarboxylate] the Salt is water-soluble [3, 4] was “yes”.

In the case of `CC1CC(CC2CCC(N)C(C)C2)CCC1N.O=C(O)C1OC(C(=O)O)C(C(=O)O)C1C(=O)O` (stereo not shown) [Example B18, 4,4′-Methylene-bis(2-methylcyclohexylammonium)-dihydrogen-tetrahydrofuran-2,3,4,5-tetracarboxylate], the Salt is water-soluble [3, 4] is reported as “yes”.

For `NCC1CC2CC1CC2CN.O=C(O)C1C(C(=O)O)C(C(=O)O)C1C(=O)O` (stereo not shown) [Example B21, Norbornane bis(methylammonium)-dihydrogen-1,2,3,4-cyclobutanetetracarboxylate], the Salt is water-soluble [3, 5] was “yes”.

For `NCC1CC2CC1CC2CN.O=C(O)C1CC(C(=O)O)C(C(=O)O)C1C(=O)O` (stereo not shown) [Example B23, Norbornane bis(methylammonium)-dihydrogen-1,2,3,4-cyclopentanetetracarboxylate], the Salt is water-soluble [3, 6] was “yes”.

With `NC1CCC(CC2CCC(N)CC2)CC1.O=C(O)C1OC(C(=O)O)C(C(=O)O)C1C(=O)O` (stereo not shown) [Example V2] the Salt is water-soluble [3, 4] was “no”.

In the case of `Cc1ccc(N)cc1N` [Example V7], the Salt is water-soluble [3, 4] is reported as “no”.

In the case of `Nc1cccc(N)n1.O=C(O)C1OC(C(=O)O)C(C(=O)O)C1C(=O)O` (stereo not shown) [Example V9], the Salt is water-soluble [3, 4] is reported as “no”.

With `Nc1ccc(Cc2ccc(N)cc2)cc1.O=C(O)C1OC(C(=O)O)C(C(=O)O)C1C(=O)O` (stereo not shown) [Example V11] the Salt is water-soluble [3, 4] was “no”.

With `Cc1cc(-c2ccc(N)c(C)c2)ccc1N` [Example V12] the Salt is water-soluble [3, 4] was “no”.

With `Nc1n[nH]c(N)n1` [Example V38] the Salt is water-soluble [3, 7] was “no”.

With `Nc1ccc(Cc2ccc(N)cc2)cc1` [Example V39] the Salt is water-soluble [3, 7] was “no”.

For `NCCCCN.O=C(O)C1C(C(=O)O)C(C(=O)O)C1C(=O)O` (stereo not shown) [Example V42], the Salt is water-soluble [3, 5] was “yes”.

With `CC1(C)CC(N)CC(C)(CN)C1.O=C(O)C1C(C(=O)O)C(C(=O)O)C1C(=O)O` (stereo not shown) [Example V54] the Salt is water-soluble [3, 5] was “yes”.

With `NCc1cccc(CN)c1.O=C(O)C1C(C(=O)O)C(C(=O)O)C1C(=O)O` (stereo not shown) [Example V55] the Salt is water-soluble [3, 5] was “yes”.

With `NCCCCN.O=C(O)C1CC(C(=O)O)C(C(=O)O)C1C(=O)O` (stereo not shown) [Example V57] the Salt is water-soluble [3, 6] was “yes”.

With `CC(CN)CCCN.O=C(O)C1CC(C(=O)O)C(C(=O)O)C1C(=O)O` (stereo not shown) [Example V60] the Salt is water-soluble [3, 6] was “yes”.

With `NCCCCCCCCCN.O=C(O)C1CC(C(=O)O)C(C(=O)O)C1C(=O)O` (stereo not shown) [Example V63] the Salt is water-soluble [3, 6] was “yes”.

For `CC1(C)CC(N)CC(C)(CN)C1.O=C(O)C1CC(C(=O)O)C(C(=O)O)C1C(=O)O` (stereo not shown) [Example V69], the Salt is water-soluble [3, 6] was “yes”.

For `NCCCCN.O=C(O)C1CC(C(=O)O)C(C(=O)O)CC1C(=O)O` (stereo not shown) [Example V72], the Salt is water-soluble [3, 8] was “yes”.

In the case of `NCCCCCCCCCN.O=C(O)C1CC(C(=O)O)C(C(=O)O)CC1C(=O)O` (stereo not shown) [Example V78], the Salt is water-soluble [3, 8] is reported as “yes”.

In the case of `CC1(C)CC(N)CC(C)(CN)C1.O=C(O)C1CC(C(=O)O)C(C(=O)O)CC1C(=O)O` (stereo not shown) [Example V84], the Salt is water-soluble [3, 8] is reported as “yes”.

For `NCc1cccc(CN)c1` [Example V85], the Salt is water-soluble [3, 8] was “yes”.

With `NCCCCN.O=C(c1ccc(C(=O)O)c(C(=O)O)c1)c1ccc(C(=O)O)c(C(=O)O)c1` [Example V86] the Salt is water-soluble [3, 9] was “no”.

With `CC(C)(CN)CN.O=C(c1ccc(C(=O)O)c(C(=O)O)c1)c1ccc(C(=O)O)c(C(=O)O)c1` [Example V88] the Salt is water-soluble [3, 9] was “yes”.

For `NCCCCCCCCCCCCN.O=C(c1ccc(C(=O)O)c(C(=O)O)c1)c1ccc(C(=O)O)c(C(=O)O)c1` [Example V94], the Salt is water-soluble [3, 9] was “no”.

With `CC1(C)CC(N)CC(C)(CN)C1.O=C(c1ccc(C(=O)O)c(C(=O)O)c1)c1ccc(C(=O)O)c(C(=O)O)c1` [Example V95] the Salt is water-soluble [3, 9] was “yes”.

In the case of `CC1CC(CC2CCC(N)C(C)C2)CCC1N.O=C(c1ccc(C(=O)O)c(C(=O)O)c1)c1ccc(C(=O)O)c(C(=O)O)c1` [Example V97], the Salt is water-soluble [3, 9] is reported as “yes”.

In the case of `Nc1cccc(N)n1` [Example V104], the Salt is water-soluble [3, 9] is reported as “no”.

For “Norbornane bis(methylammonium)-dihydrogen-1,2,4,5-cyclohexanetetracarboxylate [Example B25]”, the Salt is water-soluble [3, 8] was “yes”.

With “Norbornane bis(methylammonium)-dihydrogen-3,3′,4,4′-benzophenonetetracarboxylate [Example B27]” the Salt is water-soluble [3, 9] was “yes”.

With “Tricyclo[5.2.1.0^2,6]decane-3(4),8(9)-bis(methanammonium)-dihydrogen-1,2,3,4-butane-tetracarboxylate [Example B20]” the Salt is water-soluble [3, 7] was “yes”.

With “Tricyclo[5.2.1.0^2,6]decane-3(4),8(9)-bis(methanammonium)-dihydrogen-1,2,3,4-cyclobutanetetracarboxylate [Example B22]” the Salt is water-soluble [3, 5] was “yes”.

For “Tricyclo[5.2.1.0^2,6]decane-3(4),8(9)-bis(methanammonium)-dihydrogen-1,2,3,4-cyclopentanetetracarboxylate [Example B24]”, the Salt is water-soluble [3, 6] was “yes”.

With “Tricyclo[5.2.1.0^2,6]decane-3(4),8(9)-bis(methanammonium)-dihydrogen-1,2,4,5-cyclohexanetetracarboxylate [Example B26]” the Salt is water-soluble [3, 8] was “yes”.

For “Tricyclo[5.2.1.0^2,6]decane-3(4),8(9)-bis(methanammonium)-dihydrogen-3,3′,4,4′-benzophenonetetracarboxylate [Example B28]”, the Salt is water-soluble [3, 9] was “yes”.
